# In patent publication US20050014268A1, “Genetic transformation using a PARP inhibitor” (Bayer BioScience NV, priority 1995, published 2005):
# Marks after values point to notes of the source that are not given here.
# How the values were obtained:
# [1] = tested on: Brassica napus hypocotyl explants; experiment: Tissue culture of Brassica napus hypocotyl explants on A5 medium containing niacinamide; format: cell-based
# Protocol: Hypocotyl explants of Brassica napus were obtained, cultured and transformed essentially as described by De Block et al, 1989, Plant Physiol. 914:694-701 except for the following modifications: • hypocotyl explants were precultured for 3 days on A2 medium (MS, 0.5 g/l Mes (pH 5.7), 1.2% glucose, 0.5% agarose, 1 mg/l 2,4-D, 0.25 mg/l naphthalene acetic acid (NAA), 1 mg/l 6-benzylaminopurine (BAP)), […] MS, 0.5 g/l Mes (pH 5.7), 1.2% glucose, 0.1 mg/l NAA, 0.75 mg/l BAP, 0.01 mg/l giberellinic acid (GA3) • selection medium A5 was 0.5 g/l Mes (pH 5.7), 1.2% glucose, 40 mg/l adenine.SO4, 0.5 g/l polyvinyl-polypyrrolidone (PVP), 0.5% agarose, 0.1 mg/l NAA, 0.75 mg/l BAP, 0.01 mg/l GA3, 250 mg/l carbenicillin, 250 mg/l triacillin, 5 mg/l AgNO3. • regeneration medium A6 was MS, 0.5 g/l Mes (pH 5.7), 2% sucrose, 40 mg/l adenine.SO4, 0.5 g/l PVP, 0.5% agarose, 0.0025 mg/l BAP, 250 mg/l triacillin. • healthy shoots were transferred to 1 liter vessels containing rooting medium which was either A8 or A9; A8 consists of 100-130 ml half concentrated MS, 1% sucrose (pH 5.0), 1 mg/l isobutyric acid (IBA), 100 mg/l triacillin added to 300 ml perlite (final pH 6.2); A9 consists of half concentrated MS, 1.5% sucrose (pH 5.8) solidified with agar (0.6%)
# [2] = tested on: wheat embryogenic callus (variety Pavon); experiment: Transformation of wheat calli with barnase/bar plasmids by particle bombardment, with niacinamide treatment of the calli; format: cell-based
# Protocol: The Wheat Spring variety Pavon is grown in a greenhouse or conditioned room at 23-24° C. during daytime and 18-20° C. at night, with a photoperiod of 16 hours light and 8 hours dark. Developing seeds (white-greenish with white semi-liquid endosperm) were harvested, sterilized by incubation for 1 minute in 70% ethanol followed by 15 minute incubation in 1.3% NaOCl+0.1% Tween 20, and washed with sterile water. The sterilized seeds were either used directly or were stored for one day at 4-7° C.
# Immature embryos of about 1 mm in size were isolated and were placed, with the scutellum upwards, on callus inducing medium W1 (MS medium supplemented with 3% sucrose, 40 mg/l adenine.SO4, 0.5 mg/l thiamine.HCl, 0.5 g/l 2-[N-Morpholino] ethane sulfonic acid (Mes) pH 5.8, 0.5% agarose, 0.5 to 2.5 mg/l CuSO4.5H2O, 25 mg/l acetylsalicylic acid and 2 mg/l 2,4-dichlorophenoxyacetic acid (2,4-D)) and were incubated for 3 weeks at 27° C. in the dark.
# Embryogenic sections of the developing callus were isolated, placed on callus maintenance medium W2 (W1 medium but without acetylsalicylic acid and with only 0.5 mg/l CuSO4.5H2O and 1 mg 2,4-D), and incubated for 3 weeks at 24-25° C. in the light (approx. 20 mEinsteins/s/m^2 (with a photoperiod of 16 hours light and 8 hours dark).
# About 2 weeks prior to bombardment the calli were cleaned up by removal of non-morphogenic (i.e. the nonembryogenic and nonmeristematic) parts and were subcultured on W2 medium.
# For bombardment the calli were divided into small pieces with an average maximum diameter of about 2-3 mm. These pieces were placed at the center of a 9 cm Petridish containing W2 medium in a circle with a diameter of approx. 0.5 cm. […]
# Bombardment was carried out using the Biolistic PDS-1000/He apparatus (Bio-Rad). Preparation of the microcarriers ([…]) and the coating of the microcarriers with DNA was essentially carried out according to the manufacturer's instructions. The Petridishes containing the calli were placed at level 2 of the apparatus and the bombardment was done at 1550 psi.
# For the transformation experiments the following plasmid DNA was used. • plasmid pVE136, the sequence of which is given in SEQ ID No 4. This plasmid contains the following chimeric genes: • P35S-bar-3′nos • PCA55-barnase-3′nos • in which P35S is the 35S promoter of the Cauliflower, Mosaic virus, bar is a DNA encoding phosphinothricin acetyltransferase (EP 242236), 3′nos is the 3′ untranslated end of the Agrobacterium T-DNA nopaline synthase gene, PCA55 is a stamen-specific promoter from corn gene CA55 (WO 9213957), and barnase is a DNA encoding barnase (Hartley, 1988, J.Mol.Biol.202:913-915) • plasmid pTS172 the sequence of which is given in SEQ ID No 2. This plasmid contains the following chimeric genes: • P35S-bar-3′g7 • PE1-barnase-3′nos • in which in which P35S is the 35S promoter of the Cauliflower Mosaic virus, bar is a DNA encoding phosphinothricin acetyltransferase (EP 242236), 3′g7 is the 3′ untranslated end of the Aqrobacterium T-DNA gene 7, PE1 is a stamen-specific promoter from rice gene E1 (WO 9213956), barnase is a DNA encoding barnase (Hartley, 1988, J.Mol.Biol.202:913-915), and 3′ nos is the 3′ untranslated end of the Agrobacterium T-DNA nopaline synthase gene, • plasmid pTS772 which is identical to pTS172 except that the region between nucleotides 2625-4313 of pTS172, containing PE1, is replaced by the sequence of SEQ ID No 3 containing the PT72 promoter. Thus, plasmid pTS772 contains the following chimeric genes: • P35S-bar-3′g7 • PT72-barnase-3′nos • in which PT72 is a stamen-specific promoter from rice gene T72 (WO 9213956)
# The bombarded calli were transferred to selective medium W2 containing 2.5 mg/l phosphinothricin (PPT) and, if neccesary, 100 mg/l niacinamide. The calli that were placed on medium containing niacinamide were transferred after 4 days to niacinamide-free W2 medium containing 2.5 mg/l PPT. The cells were cultured at 24-25° C. […]
# [3] = after 4-5 days of incubation with niacinamide
# [4] = Plasmid pTS172, Before 250, 125 bombarded calli
# [5] = Plasmid pTS772, Before 250, 210 bombarded calli
# [6] = Plasmid pTS772, Before/After, 210 bombarded calli
smiles,measurement,setting,value
NC(=O)c1cccnc1 [niacinamide],anthocyanin production in tissue culture,[1]; A5 medium containing 250 mg/l niacinamide,no anthocyanin was produced
same,concentration of dehydroascorbate in the explants,[1]; [3],drastically decreased
same,concentration of hydroxyl free radical in the explants,[1]; [3],drastically decreased
same,percentage of cultured cells in G2 phase of the cell cycle,"[1]; after a 4 day incubation in niacinamide containing medium, considerably increased",up to 45 % of all cells in the culture
same,Nr of PPT-resistant calli recovered,"[2]; Plasmid pTS172, Before 250 (250 mg/l niacinamide for four days prior to bombardment), 125 bombarded calli",30
same,Nr of MS plants recovered,[2]; [4],3^b)
same,Nr of PPT resistant plants recovered,[2]; [4],3
same,appearance of the obtained plants,"[2]; Plasmid pTS172, Before 250, MS plants",^b)The obtained plants looked healthy and tillered vigorously
same,Nr of PPT resistant plants recovered,[2]; [5],7
same,Nr of PPT-resistant calli recovered,[2]; [5],75
same,Nr of MS plants recovered,"[2]; Plasmid pTS772, Before 250, 210 bombarded calli, only six plants could be analyzed for MS phenotype",3^a)b)
same,appearance of the obtained plants,"[2]; Plasmid pTS772, Before 250 and Before/After, MS plants",^a)The obtained plants looked healthy and tillered vigorously
same,Nr of PPT-resistant calli recovered,"[2]; Plasmid pTS772, Before/After (250 mg/l four days prior plus 100 mg/l four days after bombardment), 210 bombarded calli",45
same,Nr of MS plants recovered,[2]; [6],3^a
same,Nr of PPT resistant plants recovered,[2]; [6],6
same,Nr of PPT resistant plants recovered,"[2]; Plasmid pVE136, Before 100 (100 mg/l niacinamide for four days prior to bombardment), 800 bombarded calli",8^a)
same,Nr of MS plants recovered,"[2]; Plasmid pVE136, Before 100, 800 bombarded calli",8
same,appearance of the obtained plants,"[2]; Plasmid pVE136, Before 100, PPT resistant plants",^a)The obtained plants looked healthy and tillered vigorously
same,recovery of plants from bombarded calli,"[2]; Tables 1, 2 and 3, treated versus untreated calli",obtained only from bombarded calli that were treated with niacinamide
